Holding throughout (type): cell-based
Test [1] has as its target T1, CaV2.2 (Homo sapiens, UniProt Q00975).
T1 construct: expressed in transfected cells; host or cells: unnamed doxycycline-inducible cell line
The experiment in a line: High-throughput CaV2.2/Kir2.3 FLIPR fluorescent assay. The conditions noted are these: Table 4; Fluo-4 FLIPR; closed or inactivated state not stated; read-out: FLIPR data CaV2.2. In a few lines:
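Doxycycline-induced cells moved to 29 °C on assay day and were loaded with 4.4 μM Fluo-4. They were held in 2 mM KCl (closed state) or 12.5 mM KCl (inactivated state) buffer, pH 7.4, then depolarized with 130 mM KCl. Fluorescence was read 3 min on FLIPR, and IC50 was obtained from logistic fits.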

For test [2], the target named is T2, CaV3.1 (Homo sapiens, UniProt O43497).
T2 construct: expressed in transfected cells; host or cells: unnamed doxycycline-inducible cell line
T2 sequence (O43497 whole entry): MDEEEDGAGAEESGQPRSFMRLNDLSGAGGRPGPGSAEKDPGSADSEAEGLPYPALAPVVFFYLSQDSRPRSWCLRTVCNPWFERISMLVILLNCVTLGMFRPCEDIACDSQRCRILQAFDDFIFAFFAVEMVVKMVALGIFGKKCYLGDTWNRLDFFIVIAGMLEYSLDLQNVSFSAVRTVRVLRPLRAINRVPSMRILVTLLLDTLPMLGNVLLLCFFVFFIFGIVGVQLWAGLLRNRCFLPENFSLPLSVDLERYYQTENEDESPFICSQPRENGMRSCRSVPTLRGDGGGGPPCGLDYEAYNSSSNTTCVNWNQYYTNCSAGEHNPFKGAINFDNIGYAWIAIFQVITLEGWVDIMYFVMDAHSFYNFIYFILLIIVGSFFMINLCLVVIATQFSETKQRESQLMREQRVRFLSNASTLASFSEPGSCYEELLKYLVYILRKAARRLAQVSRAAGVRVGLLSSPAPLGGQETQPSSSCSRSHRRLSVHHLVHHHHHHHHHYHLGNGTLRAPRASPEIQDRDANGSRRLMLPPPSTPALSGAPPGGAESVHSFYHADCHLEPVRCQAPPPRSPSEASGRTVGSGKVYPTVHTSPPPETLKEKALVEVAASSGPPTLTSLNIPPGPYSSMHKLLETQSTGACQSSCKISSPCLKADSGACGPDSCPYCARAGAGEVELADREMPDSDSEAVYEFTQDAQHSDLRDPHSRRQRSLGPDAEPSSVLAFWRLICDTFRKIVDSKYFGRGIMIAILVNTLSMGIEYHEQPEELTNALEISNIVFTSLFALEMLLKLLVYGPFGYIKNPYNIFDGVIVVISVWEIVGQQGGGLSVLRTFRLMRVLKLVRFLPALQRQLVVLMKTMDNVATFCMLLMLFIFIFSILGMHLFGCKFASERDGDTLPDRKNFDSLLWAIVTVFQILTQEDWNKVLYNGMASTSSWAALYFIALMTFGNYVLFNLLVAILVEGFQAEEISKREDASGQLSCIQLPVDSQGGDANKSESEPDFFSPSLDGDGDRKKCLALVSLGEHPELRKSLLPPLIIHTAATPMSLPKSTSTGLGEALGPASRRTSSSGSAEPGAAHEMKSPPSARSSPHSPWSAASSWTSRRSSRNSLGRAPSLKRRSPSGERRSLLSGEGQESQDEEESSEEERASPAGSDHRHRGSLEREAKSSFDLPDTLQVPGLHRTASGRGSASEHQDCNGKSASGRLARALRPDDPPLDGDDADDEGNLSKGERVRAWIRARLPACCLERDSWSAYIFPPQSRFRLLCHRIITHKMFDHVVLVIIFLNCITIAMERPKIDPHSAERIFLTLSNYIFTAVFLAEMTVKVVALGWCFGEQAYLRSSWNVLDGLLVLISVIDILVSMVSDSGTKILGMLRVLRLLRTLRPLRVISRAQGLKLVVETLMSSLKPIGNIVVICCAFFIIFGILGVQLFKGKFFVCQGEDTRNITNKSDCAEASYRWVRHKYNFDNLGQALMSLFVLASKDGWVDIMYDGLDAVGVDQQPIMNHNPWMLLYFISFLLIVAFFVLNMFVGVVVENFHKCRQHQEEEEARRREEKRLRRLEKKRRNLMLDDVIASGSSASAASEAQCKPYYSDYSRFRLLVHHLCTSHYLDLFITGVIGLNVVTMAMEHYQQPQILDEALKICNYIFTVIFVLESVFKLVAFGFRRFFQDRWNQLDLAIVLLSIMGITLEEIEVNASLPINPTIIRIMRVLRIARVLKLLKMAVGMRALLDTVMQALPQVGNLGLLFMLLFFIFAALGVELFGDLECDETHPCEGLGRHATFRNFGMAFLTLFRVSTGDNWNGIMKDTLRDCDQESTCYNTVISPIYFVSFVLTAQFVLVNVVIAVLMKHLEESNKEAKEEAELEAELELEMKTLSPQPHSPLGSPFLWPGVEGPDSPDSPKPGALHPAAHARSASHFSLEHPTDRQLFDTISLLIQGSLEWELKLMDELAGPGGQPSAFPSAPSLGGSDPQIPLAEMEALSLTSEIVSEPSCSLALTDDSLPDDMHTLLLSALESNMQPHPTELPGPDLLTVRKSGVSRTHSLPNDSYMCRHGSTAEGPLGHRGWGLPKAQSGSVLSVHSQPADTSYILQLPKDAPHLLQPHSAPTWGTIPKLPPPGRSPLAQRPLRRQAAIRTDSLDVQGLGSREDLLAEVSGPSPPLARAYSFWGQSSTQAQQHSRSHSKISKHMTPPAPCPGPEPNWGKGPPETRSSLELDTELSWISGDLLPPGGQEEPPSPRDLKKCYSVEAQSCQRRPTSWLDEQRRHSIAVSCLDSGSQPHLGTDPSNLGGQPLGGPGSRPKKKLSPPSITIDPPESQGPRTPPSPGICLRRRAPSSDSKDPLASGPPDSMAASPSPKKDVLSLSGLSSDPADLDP
In words: High-throughput CaV3.1 T-type FLIPR fluorescent assay. The conditions noted are these: Table 4; Fluo-4 FLIPR. The procedure, abridged: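 Doxycycline-induced CaV3.1 cells were loaded with Fluo-4 at 29 °C and pre-incubated with compound for 20 min at 29 °C in low-Ca2+ buffer (0.001 mM CaCl2, pH 7.2). Calcium entry was triggered by buffer containing 6 mM CaCl2, and Fluo-4 fluorescence was recorded on FLIPR for 3 min. IC50 came from logistic fits.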

Test [3] has as its target T3, CaV3.2 (Homo sapiens, UniProt O95180).
T3 construct: expressed in transfected cells; host or cells: unnamed doxycycline-inducible cell line
The experiment in a line: High-throughput CaV3.2/Kir2.3 T-type FLIPR fluorescent assay. The note with it: Table 4; Fluo-4 FLIPR; closed or inactivated state not stated. In a few lines: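 Doxycycline-induced cells loaded with Fluo-4, preincubated 20 min at 29°C with compound in 2 mM KCl (closed-state) or 7.6 mM KCl (inactivated-state) buffer, pH 7.4. Calcium entry triggered by 12 mM or 14.5 mM KCl respectively; fluorescence read 3 min by FLIPR, IC50 from logistic fit.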

T3 sequence (O95180 whole entry): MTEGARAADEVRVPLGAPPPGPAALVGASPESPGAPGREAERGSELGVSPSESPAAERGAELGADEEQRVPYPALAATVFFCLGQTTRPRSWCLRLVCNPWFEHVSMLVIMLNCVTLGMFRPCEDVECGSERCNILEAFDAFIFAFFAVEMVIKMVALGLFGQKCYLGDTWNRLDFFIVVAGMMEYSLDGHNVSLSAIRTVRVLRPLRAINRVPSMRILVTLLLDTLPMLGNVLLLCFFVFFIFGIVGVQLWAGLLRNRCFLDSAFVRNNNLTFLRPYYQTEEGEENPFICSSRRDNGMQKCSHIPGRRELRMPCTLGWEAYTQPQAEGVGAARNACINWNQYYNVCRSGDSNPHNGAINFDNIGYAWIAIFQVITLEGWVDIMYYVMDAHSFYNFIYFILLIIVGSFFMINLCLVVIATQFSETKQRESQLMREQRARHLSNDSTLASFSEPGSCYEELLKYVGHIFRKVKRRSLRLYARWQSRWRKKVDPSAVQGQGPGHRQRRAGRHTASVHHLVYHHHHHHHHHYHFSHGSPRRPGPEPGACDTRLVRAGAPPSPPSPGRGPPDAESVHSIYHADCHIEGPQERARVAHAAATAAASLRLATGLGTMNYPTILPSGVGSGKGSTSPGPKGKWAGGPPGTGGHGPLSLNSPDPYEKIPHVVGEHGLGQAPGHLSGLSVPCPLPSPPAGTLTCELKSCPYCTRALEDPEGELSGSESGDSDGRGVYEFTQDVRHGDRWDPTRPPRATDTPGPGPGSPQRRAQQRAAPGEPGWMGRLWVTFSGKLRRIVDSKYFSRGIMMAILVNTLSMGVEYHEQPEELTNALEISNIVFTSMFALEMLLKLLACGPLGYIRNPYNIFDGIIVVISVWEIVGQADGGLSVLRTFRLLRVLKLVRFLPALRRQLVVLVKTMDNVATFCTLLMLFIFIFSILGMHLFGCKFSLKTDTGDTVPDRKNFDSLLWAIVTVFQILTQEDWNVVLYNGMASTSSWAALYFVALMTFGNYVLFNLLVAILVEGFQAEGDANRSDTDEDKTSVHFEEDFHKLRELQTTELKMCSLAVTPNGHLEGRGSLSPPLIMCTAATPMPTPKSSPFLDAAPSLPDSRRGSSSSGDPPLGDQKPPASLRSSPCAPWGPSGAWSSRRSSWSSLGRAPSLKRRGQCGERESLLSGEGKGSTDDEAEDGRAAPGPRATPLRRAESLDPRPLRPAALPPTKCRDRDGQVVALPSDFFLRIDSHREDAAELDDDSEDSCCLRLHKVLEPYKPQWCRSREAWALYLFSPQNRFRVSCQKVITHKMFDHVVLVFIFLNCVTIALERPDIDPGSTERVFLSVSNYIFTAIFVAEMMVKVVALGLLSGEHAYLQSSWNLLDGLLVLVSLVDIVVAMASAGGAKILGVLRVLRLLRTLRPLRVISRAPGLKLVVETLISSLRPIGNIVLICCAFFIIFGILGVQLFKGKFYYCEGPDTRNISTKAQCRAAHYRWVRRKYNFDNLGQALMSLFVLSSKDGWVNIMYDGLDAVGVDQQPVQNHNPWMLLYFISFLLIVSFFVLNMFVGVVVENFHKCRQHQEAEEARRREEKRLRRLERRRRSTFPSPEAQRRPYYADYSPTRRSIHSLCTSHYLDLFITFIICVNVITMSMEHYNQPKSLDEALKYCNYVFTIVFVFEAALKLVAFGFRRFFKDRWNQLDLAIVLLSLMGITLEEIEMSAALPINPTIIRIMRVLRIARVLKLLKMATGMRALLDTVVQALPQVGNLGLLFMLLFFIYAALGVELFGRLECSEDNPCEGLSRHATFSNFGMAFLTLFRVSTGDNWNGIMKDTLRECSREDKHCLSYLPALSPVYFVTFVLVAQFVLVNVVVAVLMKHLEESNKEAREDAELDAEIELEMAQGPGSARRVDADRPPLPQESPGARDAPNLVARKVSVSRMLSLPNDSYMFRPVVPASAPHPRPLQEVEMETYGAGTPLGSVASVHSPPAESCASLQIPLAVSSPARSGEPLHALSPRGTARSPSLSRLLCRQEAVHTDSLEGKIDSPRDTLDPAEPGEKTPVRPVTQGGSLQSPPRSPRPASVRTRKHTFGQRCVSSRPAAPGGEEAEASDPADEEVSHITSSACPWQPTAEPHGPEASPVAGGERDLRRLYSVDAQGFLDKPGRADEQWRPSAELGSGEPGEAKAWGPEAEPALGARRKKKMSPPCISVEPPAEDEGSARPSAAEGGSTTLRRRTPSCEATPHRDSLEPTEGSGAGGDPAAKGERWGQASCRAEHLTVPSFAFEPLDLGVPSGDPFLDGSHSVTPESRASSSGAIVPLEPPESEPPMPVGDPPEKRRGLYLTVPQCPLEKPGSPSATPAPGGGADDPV

As to `O=C(NCc1ccc(S(=O)(=O)c2cccc(C(F)(F)F)c2)cc1)c1ccc(C(F)(F)F)nc1` [Compound 3, 6-(trifluoromethy)-N-(4-((3-(trifluoromethyl)phenyl)sulfonyl)benzyl)nicotinamide], the IC50 was found to be 510 nM in test [1], 1340 nM in test [2] and 650 nM in test [3].
For `CS(=O)(=O)c1cc(C(F)(F)F)ccc1C(=O)NCc1cccc(S(=O)(=O)c2cccc(C(F)(F)F)c2)c1` [Compound 28, 2-(methylsulfonyl)-4-(trifluoromethyl)-N-(3-((3-(trifluoromethyl)phenyl)sulfonyl)benzyl)benzamide] the same measures were 190 nM, 1510 nM and 730 nM.
Regarding `CS(=O)(=O)c1cc(C(F)(F)F)ccc1C(=O)NCc1ccc(S(=O)(=O)c2cccc(C(F)(F)F)c2)cc1` [Compound 11, 2-(methylsulfonyl)-4-(trifluoromethyl)-N-(4-((3-(trifluoromethyl)phenyl)sulfonyl)benzyl)benzamide], the IC50 was 410 nM in test [1], 1070 nM in test [2] and 590 nM in test [3].
Regarding `Cn1nc(C(F)(F)F)cc1C(=O)NCc1cccc(S(=O)(=O)c2cccc(C(F)(F)F)c2)c1` [Compound 22, 1-methyl-3-(trifluoromethyl)-N-(3-((3-(trifluoromethyl)phenyl)sulfonyl)benzyl)-1H-pyrazole-5-carboxamide], the figures for the IC50 in test [1], in test [2] and in test [3] were 220 nM, 3010 nM and 640 nM, respectively.
As to `O=C(NCc1ccc(S(=O)(=O)c2cccc(C(F)(F)F)c2)cc1)c1ccnc(C(F)(F)F)n1` [Compound 9, 2-(trifluoromethyl)-N-(4-((3-(trifluoromethyl)phenyl)sulfonyl)benzyl)pyrimidine-4-carboxamide], the IC50 in test [1] was found to be 490 nM; in test [2] it was 2850 nM; in test [3] it was 1690 nM.
`N[C@H](C(=O)NCc1ccc(S(=O)(=O)c2cccc(C(F)(F)F)c2)cc1)c1ccccc1` [Compound 67, (S)-2-amino-2-phenyl-N-(4-((3-(trifluoromethyl)phenyl)sulfonyl)benzyl)acetamide]: the values for the IC50 in test [1], in test [2] and in test [3] were 660 nM, 3640 nM and 3740 nM, respectively.
For the compound `O=C(NCc1ccc(S(=O)(=O)c2cccc(C(F)(F)F)c2)cc1)c1ccc(C(F)(F)F)cn1` [Compound 4, 5-(trifluoromethy)-N-(4-((3-(trifluoromethyl)phenyl)sulfonyl)benzyl)picolinamide], the IC50 in test [1] turned out to be 450 nM; in test [2], 1480 nM; in test [3] it was 380 nM.
For `O=C(NCc1cccc(S(=O)(=O)c2cccc(C(F)(F)F)c2)c1)c1ccnc(C(F)(F)F)n1` [Compound 27, 2-(trifluoromethyl)-N-(3-((3-(trifluoromethyl)phenyl)sulfonyl)benzyl)pyrimidine-4-carboxamide] the same measures were 310 nM, 3360 nM and 2450 nM.
Regarding `O=C1c2ccc(C(F)(F)F)nc2CN1Cc1cccc(S(=O)(=O)c2cccc(C(F)(F)F)c2)c1` [Compound 57, 2-(trifluoromethyl)-6-(3-((3-(trifluoromethyl)phenyl)sulfonyl)benzyl)-6,7-dihydro-5H-pyrrolo[3,4-b]pyridin-5-one], the values for the IC50 in test [1], in test [2] and in test [3] were 260 nM, 6130 nM and 800 nM, respectively.
On the same counts, the results for `O=C(NCc1cccc(S(=O)(=O)c2cccc(C(F)(F)F)c2)c1)c1ccnc(C(F)(F)F)c1` [Compound 31, 2-(trifluoromethyl)-N-(3-((3-(trifluoromethyl)phenyl)sulfonyl)benzyl)isonicotinamide] are 390 nM, 1750 nM and 730 nM.
For `CC(C)S(=O)(=O)c1cc(C(F)(F)F)cnc1C(=O)NCc1ccc(S(=O)(=O)c2cccc(C(F)(F)F)c2)cc1` [Compound 33, 3-(isopropylsulfonyl)-5-(trifluoromethyl)-N-(4-((3-(trifluoromethyl)phenyl)sulfonyl)benzyl)picolinamide] the same measures were 100 nM, 920 nM and 1010 nM.

Source of the values: patent publication US20140113898A1, “BISARYLSULFONE AND DIALKYLARYLSULFONE COMPOUNDS AS CALCIUM CHANNEL BLOCKERS” (Zalicus Pharmaceuticals Ltd., priority 2010, published 2014).
